Laboratory results taken from patent US9233989B2, “Sila analogs of oxazolidinone derivatives and synthesis thereof” (Council of Scientific & Industrial Research, priority 2011, dated 2016).
Values after ≈ are worked out from the molar mass of the structure shown.

What was measured:
[1] = system: S.aureus ATCC 13709 Smith; test: MIC by microbroth dilution method; type: cell-based
[2] = system: S.aureus ATCC 29213; test: MIC by microbroth dilution method; type: cell-based
[3] = system: MRSA ATCC 43300; test: MIC by microbroth dilution method; type: cell-based, S. aureus
[4] = system: MRSA 562; test: MIC by microbroth dilution method; type: cell-based, S. aureus
[5] = system: S.aureus2 (PVL + ve); type: cell-based, S. aureus
[6] = system: S.aureus ATCC Newman 25904; test: MIC by microbroth dilution method; type: cell-based
[7] = system: MRSA ATCC BAA 39; test: MIC by microbroth dilution method; type: cell-based, S. aureus
[8] = system: S.aureus DB00026; test: MIC by microbroth dilution method; type: cell-based
[9] = system: MRSA 252 BAA 1720; test: MIC by microbroth dilution method; type: cell-based, S. aureus
[10] = system: S.epidermidis ATCC 14990; test: MIC by microbroth dilution method; type: cell-based
[11] = system: MRSE ATCC 35984; test: MIC by microbroth dilution method; type: cell-based, S. epidermidis
[12] = system: E.faecalis ATCC 29212; test: MIC by microbroth dilution method; type: cell-based
[13] = system: E.faecalis ATCC 51299(VRE&HLAR); test: MIC by microbroth dilution method; type: cell-based
[14] = system: E.faecalis ATCC 19433; test: MIC by microbroth dilution method; type: cell-based
[15] = system: E.faecium ATCC 19434; test: MIC by microbroth dilution method; type: cell-based
[16] = system: E.faecium ATCC 49224; test: MIC by microbroth dilution method; type: cell-based
[17] = system: E.faecium ATCC 35667; test: MIC by microbroth dilution method; type: cell-based
[18] = system: E.coli 7632; test: MIC by microbroth dilution method; type: cell-based
[19] = system: S.aureus ATCC 49775 PVL + ve; type: cell-based
[20] = system: S.aureus ATCC 700699 Mu50; test: MIC by microbroth dilution method; type: cell-based
[21] = system: MRSA 0-2657; test: MIC by microbroth dilution method; type: cell-based, S. aureus
[22] = system: MRSA DB 00026; test: MIC by microbroth dilution method; type: cell-based, S. aureus
[23] = system: S.aureus 13709 LNZ mutant; type: cell-based
[24] = system: S.epidermidis ATCC 12228; test: MIC by microbroth dilution method; type: cell-based
[25] = system: MRSE ATCC 35983; test: MIC by microbroth dilution method; type: cell-based, S. epidermidis
[26] = system: S.epidermis St 358; test: MIC by microbroth dilution method; type: cell-based, S. epidermidis
[27] = system: E.faecalis SP 346 VRE; test: MIC by microbroth dilution method; type: cell-based
[28] = system: E.faecium 6A VRE; test: MIC by microbroth dilution method; type: cell-based
[29] = system: E.faecium 134 VRE; test: MIC by microbroth dilution method; type: cell-based
[30] = system: E.faecium 06076 VRE; test: MIC by microbroth dilution method; type: cell-based
[31] = system: E.faecium ATCC 3567; test: MIC by microbroth dilution method; type: cell-based
[32] = system: Mycobacterium tuberculosis H37Rv; test: Anti-TB activity, colorimetric resazurin microtiter assay; type: cell-based; conditions: Mycobacterium tuberculosis, H37RV, read-out: MIC, Minimum Inhibitory Concentration (90%)

C[Si]1(C)CCN(c2c(F)cc(N3C[C@H](CO)OC3=O)cc2F)CC1 [NDS-10052, (R)-3-(4-(4,4-dimethyl-1,4-azasilinan-1-yl)-3,5-difluorophenyl)-5-(hydroxymethyl)oxazolidin-2-one]
MIC [1]: > 32 µg/mL | MIC [2]: > 32 µg/mL | MIC [3]: > 32 µg/mL | MIC [4]: 16 µg/mL (≈ 44.9 µM) | MIC [5]: > 32 µg/mL | MIC [6]: > 32 µg/mL | MIC [7]: 16 µg/mL (≈ 44.9 µM) | MIC [8]: 32 µg/mL (≈ 89.8 µM) | MIC [9]: > 32 µg/mL | MIC [10]: 16 µg/mL (≈ 44.9 µM) | MIC [11]: 32 µg/mL (≈ 89.8 µM) | MIC [12]: > 32 µg/mL | MIC [13]: > 32 µg/mL | MIC [14]: > 32 µg/mL | MIC [15]: 16 µg/mL (≈ 44.9 µM) | MIC [16]: 8 µg/mL (≈ 22.4 µM) | MIC [17]: 32 µg/mL (≈ 89.8 µM) | MIC [18]: > 32 µg/mL | MIC [19]: > 32 µg/mL | MIC [20]: 8 µg/mL (≈ 22.4 µM) | MIC [21]: > 32 µg/mL | MIC [22]: > 32 µg/mL | MIC [23]: > 32 µg/mL | MIC [24]: > 32 µg/mL | MIC [25]: > 32 µg/mL | MIC [26]: > 32 µg/mL | MIC [27]: > 32 µg/mL | MIC [28]: 8 µg/mL (≈ 22.4 µM) | MIC [29]: > 32 µg/mL | MIC [30]: > 32 µg/mL | MIC [31]: 32 µg/mL (≈ 89.8 µM) | melting point: 126 to 128 °C

C[Si]1(c2ccccc2)CCN(c2c(F)cc(N3C[C@H](CO)OC3=O)cc2F)CC1 [NDS-10071, (R)-3-(3,5-difluoro-4-(4-methyl-4-phenyl-1,4-azasilinan-1-yl)phenyl)-5-(hydroxylmethyl)oxazolidin-2-one]
MIC [1]: 32 µg/mL (≈ 76.5 µM) | MIC [2]: > 32 µg/mL | MIC [3]: > 32 µg/mL | MIC [4]: 32 µg/mL (≈ 76.5 µM) | MIC [5]: 32 µg/mL (≈ 76.5 µM) | MIC [6]: 16 µg/mL (≈ 38.2 µM) | MIC [7]: 32 µg/mL (≈ 76.5 µM) | MIC [8]: 32 µg/mL (≈ 76.5 µM) | MIC [9]: 32 µg/mL (≈ 76.5 µM) | MIC [10]: 16 µg/mL (≈ 38.2 µM) | MIC [11]: 16 µg/mL (≈ 38.2 µM) | MIC [12]: 8 µg/mL (≈ 19.1 µM) | MIC [13]: 32 µg/mL (≈ 76.5 µM) | MIC [14]: 16 µg/mL (≈ 38.2 µM) | MIC [15]: 32 µg/mL (≈ 76.5 µM) | MIC [16]: 32 µg/mL (≈ 76.5 µM) | MIC [17]: 16 µg/mL (≈ 38.2 µM) | MIC [18]: 16 µg/mL (≈ 38.2 µM) | MIC [19]: 16(ppt) | MIC [20]: 32 µg/mL (≈ 76.5 µM) | MIC [21]: 8(ppt) | MIC [22]: 16 µg/mL (≈ 38.2 µM) | MIC [23]: 16(ppt) | MIC [24]: > 32 µg/mL | MIC [25]: 16 µg/mL (≈ 38.2 µM) | MIC [26]: 16 µg/mL (≈ 38.2 µM) | MIC [27]: 16(ppt) | MIC [28]: 32 µg/mL (≈ 76.5 µM) | MIC [29]: 8 µg/mL (≈ 19.1 µM) | MIC [30]: 32 µg/mL (≈ 76.5 µM) | MIC [31]: > 32 µg/mL | MIC [32]: 50 µg/mL (≈ 119 µM) | melting point: 105 to 107 °C

COC(=S)NC[C@H]1CN(c2ccc(N3CC[Si](C)(C)CC3)c(F)c2)C(=O)O1 [NDS-10062, (S)—O-methyl((3-(4-(4,4-dimethyl-1,4-azasilinan-1-yl)-3-fluorophenyl)-2-oxooxazolidin-5-yl)methyl)carbamothioate]
MIC [1]: 4 µg/mL (≈ 9.72 µM) | MIC [2]: 4 µg/mL (≈ 9.72 µM) | MIC [3]: 4 µg/mL (≈ 9.72 µM) | MIC [4]: 4 µg/mL (≈ 9.72 µM) | MIC [5]: 4 µg/mL (≈ 9.72 µM) | MIC [6]: 4 µg/mL (≈ 9.72 µM) | MIC [7]: 4 µg/mL (≈ 9.72 µM) | MIC [8]: 4 µg/mL (≈ 9.72 µM) | MIC [9]: 8 µg/mL (≈ 19.4 µM) | MIC [10]: 4 µg/mL (≈ 9.72 µM) | MIC [11]: 2 µg/mL (≈ 4.86 µM) | MIC [12]: 1 µg/mL (≈ 2.43 µM) | MIC [13]: 4 µg/mL (≈ 9.72 µM) | MIC [14]: 2 µg/mL (≈ 4.86 µM) | MIC [15]: 8 µg/mL (≈ 19.4 µM) | MIC [16]: 4 µg/mL (≈ 9.72 µM) | MIC [17]: 4 µg/mL (≈ 9.72 µM) | MIC [18]: 2 µg/mL (≈ 4.86 µM) | MIC [19]: 4 µg/mL (≈ 9.72 µM) | MIC [20]: 8 µg/mL (≈ 19.4 µM) | MIC [21]: 4 µg/mL (≈ 9.72 µM) | MIC [22]: 4 µg/mL (≈ 9.72 µM) | MIC [23]: 4 µg/mL (≈ 9.72 µM) | MIC [24]: > 32 µg/mL | MIC [25]: 4 µg/mL (≈ 9.72 µM) | MIC [26]: 4 µg/mL (≈ 9.72 µM) | MIC [27]: 4 µg/mL (≈ 9.72 µM) | MIC [28]: 8 µg/mL (≈ 19.4 µM) | MIC [29]: 4 µg/mL (≈ 9.72 µM) | MIC [30]: 4 µg/mL (≈ 9.72 µM) | MIC [31]: 4 µg/mL (≈ 9.72 µM) | MIC [32]: 50 µg/mL (≈ 121 µM)
